Assay results published in article PMC10816808, “Enhancement of the Antitumor and Antimetastatic Effect of Topotecan and Normalization of Blood Counts in Mice with Lewis Carcinoma by Tdp1 Inhibitors—New Usnic Acid Derivatives” (International Journal of Molecular Sciences, 2024).
Values joined by “and” are separate entries in the source; they are usually repeats but may differ in a detail not shown here. Equal values may be shown once.

Columns and labels:
[1] = MTT cytotoxicity test, MRC-5; format: cell-based; details: human, MRC-5 cells (lung fibroblasts, nontumor), read-out: semitoxic concentration (CC50), MRC-5
Description: (§1) Compounds 6 and 8 with a bromophenol residue in the enamine fragment have a weak or moderate effect on cell survival (Table 1 and Supplementary Figure S1).
(§2) Cytotoxicity of the compounds against human tumor cell lines: HeLa (cervical cancer), HCT-116 (colorectal cancer), A-549 (lung cancer), MCF-7 (breast cancer), T98G (glioblastoma), HepG2 (hepatocarcinoma), and nontumor cell lines: MRC-5 (lung fibroblasts) and HEK293A (human embryonic kidney) was examined using the MTT test. HCT-116 and MRC-5 cell lines were provided by the Cell Culture Bank of the State Research Center for Virology and Biotechnology Vector, Novosibirsk, Russia. A-549, MCF-7, and T98G cell lines were obtained from the Russian Cell Culture Collection (RCCC) Institute of Cytology RAS (St. Petersburg, Russia). HEK293A cells were purchased (ThermoFisher Scientific, Waltham, MA, USA).
(§3) The cell culture medium DMEM medium (Invitrogen, Carlsbad, CA, USA) contained 10% fetal bovine serum (FBS) (Invitrogen), penicillin (100 units/mL), and streptomycin (100 µg/mL). Cells were seeded into 96-well plates at 5000 cells per well and grown at 37 °C and 5% CO2 in a humid atmosphere. At 30–50% confluence, the tested compounds were added to the medium to a final DMSO content of 1%. Control wells contained 1% DMSO. To determine the cytotoxicity of Tdp1 inhibitors, the cells were treated with compounds with concentrations ranging from 1 to 100 µM for 72 h at 37 °C […]. All measurements were repeated a minimum of twice.

[2] = MTT cytotoxicity test, HCT-116; format: cell-based; details: human, HCT-116 cells (colorectal cancer), read-out: semitoxic concentration (CC50), HCT-116
Description: as §1, §2, §3

[3] = tested on: Lewis lung carcinoma (LLC); experiment: Antitumor and antimetastatic effect in the Lewis lung carcinoma model; format: in vivo, mice; details: for average number of metastases in the lungs / average primary node (tumor) weight / tumor growth inhibition (TGI): C57BL mice with LLC; for average number of metastases in the lungs / average primary node (tumor) weight: day 18, mean ± SD; for average primary node (tumor) weight: single dose; for tumor growth inhibition (TGI): vs intact control; for number of metastases in the lungs / tumor weight: individual animals; for effect on the number of metastases in the lungs (in words): monotherapy, Tpc 1 mg/kg i/p, 7 50 mg/kg i/p or i/g
Description: Compound 7 is a hybrid of two compounds: leaders in their subclasses of usnic acid derivatives 1 and 4 [28, 32]. We studied the ability of compound 7 to sensitize the effect of topotecan on murine Lewis lung carcinoma (LLC) (Tpc + 7, Figure 3). The LLC cell line was maintained as a transplantable strain in mice and was provided by the cell depository of the Institute of Cytology and Genetics SB RAS (Novosibirsk, Russia). […] Subcutaneous transplantation leads to the development of a primary node at the injection site and the appearance of metastases in the lungs on days 17–21 [47]. The size of the primary tumor was determined as the difference in the weight of the healthy limb and the limb with the tumor after the mice were removed from the experiment on 18th day after LLC transplantation.
Female C57BL mice with a body weight of ~19–21 g were used in the study. Mice were housed in plastic cages with a wood chip bedding and had free access to water and food. Lewis lung carcinoma (LLC) and Krebs-2 ascites were used as experimental tumor models. The transplantable tumors were obtained from the cell bank of the Institute of Cytology and Genetics (Novosibirsk, Russia). The LLC mouse model is the most common model of lung cancer; LLC cells remain tumorigenic and capable of metastasis into the lung in C57BL mice. Tumor tissue was minced and resuspended in 0.9% NaCl prior to grafting. LLC was injected into the right thigh of mice at 800,000 cells in 0.2 mL per mouse.
Previously, we divided the animals into 6 groups of 6–7 individuals in each, the treatment was carried out once 7 days after tumor transplantation: • - Group 1—Intact control—mice of this group were inoculated with a tumor, receiving 0.2 mL of saline intraperitoneally; • - Group 2—DMSO-Tween-80—mice were injected once intragastrically with a probe 200 μL of a solution containing saline, Tween-80 (10%) and DMSO (15%), a solvent for 7; • - Group 3—Tpc (aqueous solution)—mice were injected once intraperitoneally with 200 µL of Tpc at a single dose of 1 mg/kg; • - Group 4—Tpc + 7 i/g—mice received Tpc once as described for group 3 and 7 in the form of 200 µL of suspension (Tween-80 (10%) and DMSO (15%) in saline) once intragastrically at a dose of 50 mg/kg; • - Group 5—7 i/g—mice were injected with 7 as described for group 4; • - Group 6—Tpc + 7 i/p—mice were injected with topotecan once as described for groups 3 and 7 in the form of 200 µL of suspension (Tween-80 (10%) and DMSO (15%) in saline) once intraperitoneally at a dose of 50 mg/kg; • - Group 7—7 i/p—mice were injected with 7 as for group 6.
The substances were administered as a single injection in a volume of 0.2 mL on day 13 after tumor grafting. The anticancer effect was evaluated by the primary tumor growth and the number of metastases in the lungs of all mice. Metastases were counted after fixation in 10% formalin under an MBI-3 microscope (LOMO, Saint Petersburg, Soviet Union) at a threefold magnification.

[4] = MTT cytotoxicity test, MCF-7; format: cell-based; details: human, MCF-7 cells (breast cancer), read-out: semitoxic concentration (CC50), MCF-7
Description: as §1, §2, §3

[5] = MTT cytotoxicity test, HEK293A; format: cell-based; details: human, HEK293A cells (embryonic kidney, nontumor), read-out: semitoxic concentration (CC50), HEK293A
Description: as §1, §2, §3

[6] = MTT cytotoxicity test, HeLa; format: cell-based; details: human, HeLa cells (cervical cancer), read-out: semitoxic concentration (CC50), HeLa
Description: as §1, §2, §3

[7] = MTT cytotoxicity test, T98G; format: cell-based; details: human, T98G cells (glioblastoma), read-out: semitoxic concentration (CC50), T98G
Description: as §1, §2, §3

A-549 = experiment: Topotecan cytotoxicity with Tdp1 inhibitor (MTT), A-549; format: cell-based; details: Homo sapiens, A549; topotecan alone or in the presence of 5 µM Tdp1 inhibitor
Description: Tdp1 inhibitors combined with topotecan dramatically reduce tumor metastasis. Usnic acid derivatives of the enamine and hydrazonothiazole series turned out to be promising sensitizers of the action of topotecan both on cultured cell lines and on mouse tumors in vivo [30, 32]. We studied the ability of the usnic acid derivatives to sensitize the effects of topotecan on the same panel of cell lines. We used two non-cancerous cell lines MRC-5 and HEK293A, including previously obtained HEK293A Tdp1 knockout cells (for compound 7), and cancerous cell lines HeLa, HCT-116, A-549, MCF-7, T98G. We found the most pronounced and reliable sensitizing effect on cancerous cell lines HeLa, HCT-116, A-549, MCF-7 only for compound 7 (Table 2 and Figures S2 and S3).
as §2, with “HEK293A cells were purchased (ThermoFisher Scientific, Waltham, MA, USA).” left out

[8] = Tpc 1 mg/kg i/p and/or 7 50 mg/kg i/p
[9] = 7 50 mg/kg i/g, alone or with Tpc 1 mg/kg i/p
[10] = mice with LLC, 7 50 mg/kg i/g, alone or with Tpc 1 mg/kg i/p
[11] = mice with LLC, Tpc 1 mg/kg i/p and/or 7 50 mg/kg i/p

Structure (SMILES): C/C(NCCCc1cc(C(C)(C)C)c(O)c(C(C)(C)C)c1)=C1\C(=O)C=C2Oc3c(-c4csc(N/N=C/c5ccc(Br)cc5)n4)c(O)c(C)c(O)c3[C@@]2(C)C1=O [Compound 7, (4E)-10-{2-[(E)-2-[(4-bromophenyl)methylidene]hydrazin-1-yl]-1,3-thiazole-4-yl}-4-(1-{[3-(3,5-di-tret-butyl-4-hydroxyhenyl)propyl]amino}ethylidene)-11,13-dihydroxy-2,12-dimethyl-8-oxatricyclo [7.4.0.02,7]trideca-1(13),6,9,11-tetraen-3,5-dione]
- CC50 at 72 h [1]: > 100 µM
- CC50 at 72 h [2]: > 100 µM
- average number of metastases in the lungs [3, 8]: 15,5±5,5
- average primary node (tumor) weight [3, 9]: 4,2±0,9 g
- average primary node (tumor) weight [3, 8]: 3,9±0,7 g
- tumor growth inhibition (TGI) [3, 9]: 4.5%
- tumor growth inhibition (TGI) [3, 8]: 11.4%
- number of metastases in the lungs [3, 10]: 18 and 4 and 21 and 0
- tumor weight [3, 10]: 2.9 g and 4.5 g and 4.8 g and 3.7 g and 5.3 g
- number of metastases in the lungs [3, 11]: 10 and 21
- tumor weight [3, 11]: 3.4 g and 4.4 g
- effect on the growth of the primary node (in words) ([3]; mice with LLC, mono mode): no effect
- effect on the number of metastases in the lungs (in words) ([3]; mice with LLC): no effect
- CC50 at 72 h [4]: > 100 µM
- CC50 at 72 h [5]: > 100 µM
- CC50 at 72 h [6]: > 100 µM
- CC50 at 72 h [7]: > 100 µM

Structure (SMILES): CC[C@@]1(O)C(=O)OCc2c1cc1n(c2=O)Cc2cc3c(CN(C)C)c(O)ccc3nc2-1 [Tpc, topotecan]
- average number of metastases in the lungs [3, 8]: 11,8±6,1
- average primary node (tumor) weight [3, 8]: 2,8±0,5 g
- tumor growth inhibition (TGI) [3, 8]: 36.4%
- number of metastases in the lungs [3, 11]: 24 and 9 and 5
- tumor weight [3, 11]: 2.9 g and 3 g and 3.4 g and 2.7 g
- effect on the number of metastases in the lungs (in words) ([3]; mice with LLC): virtually no effect
- CC50 (A-549): 1.5 µM
